In the NIST ThermoML archive (doi:10.1021/acs.jced.7b00702):

Conditions: 100 kPa, Liquid; for viscosity: Falling or rolling sphere viscometry; for mass density: Vibrating tube method

CCn1cc[n+](C)c1.[Cl-].[Cl][Al]([Cl])[Cl] [1-ethyl-3-methyl-1H-imidazolium tetrachloroaluminate]
Conditions	mass density [kg/m3]	viscosity [mPa·s]
293.15 K	1299.32	20.62
303.15 K	1291.13	15.69
313.15 K	1283.05	12.31
323.15 K	1275.03	9.952
333.15 K	1267.1	8.214
343.15 K	1259.22	6.927
353.15 K	1251.41	5.945
